Measurements reported in paper PMC2981816, “Oxalyl retro-peptide gelators. Synthesis, gelation properties and stereochemical effects” (Beilstein Journal of Organic Chemistry, 2010).

Tests used:
Format in all cases: physicochemical
[1] = Gelation test: gelator effectiveness (Geff) and minimal gelation concentration in solvents and solvent mixtures
[2] = as above; parameters: key to Gelator effectiveness (Geff): sol.: soluble; ins.: insoluble; cr.: crystallization; [A]: gel/sol mixture; conditions: for Gelator effectiveness (Geff): Table 1
Description: Gelation observed for selected gelator–solvent pairs is expressed by gelator effectiveness (Geff, mL) corresponding to the maximal volume of solvent that could be immobilized by 10 mg of the gelator (Table 1). […] However, 3a and 5a also gelled small to moderate volumes of EtOH and rac-2-octanol, whilst Leu incorporating 1a formed gels with the more lipophilic solvents, decalin and tetralin. […] Apparently, the retro-peptides incorporating aliphatic and aromatic amino acids are less versatile gelators compared to retro-peptides containing […] amino acid fragments. The latter points to the importance of intermolecular lipophilic interactions for the stabilization of gel assemblies being stronger in the case of identical amino acids either lipophilic or aromatic, and weaker for mixed aromatic-lipophilic amino acid fragments present in the gelator molecule.

[3] = TEM of gel networks (PWK negative staining), fiber diameters; conditions: water/DMSO gel
Excerpt: TEM images of diastereomeric (S,S)-1a and (S,R)-1a water/DMSO gels (Figure 2 and Figure 3) show highly distinct morphology of gel networks. In the first gel rather straight fibers and fiber bundles with diameters in the range of 40–100 nm could be observed. […] As observed earlier for other gel systems, gelator effectiveness Geff depends not only solubility but also depends on the thickness of fibers constituting the network. […] The TEM observed thicknesses of gel aggregates existing in water/DMSO and toluene gels could be also correlated with gelator effectiveness (Geff, mL, see Table 1 and Table 2). It appears that (S,R)-1b (Geff 19.5 mL, water/DMSO gel) organized in thinner fibers is more than twice effective a gelator than its diasteroisomer (S,S)-1a (Geff 8.0 mL, water/DMSO gel) which forms thicker fiber bundles. In the toluene gel, (S,R)-1b organizes into wide and short tapes with low networking capacity which is reflected in a very low (Geff 0.15 mL) gelator effectiveness. page 11: TEM and SEM investigations: transmission electron micrographs were taken on an EM 10 A Zeiss or FEI Morgagni 268D transmission electron microscope. A small amount of sample was placed on carbon-coated grid (copper, 100 mesh). The sample was negatively stained with PWK (dipotassium phosphotungstate). […]

CC(C)C[C@H](NC(=O)[C@H](CC(C)C)NC(=O)C(=O)N[C@@H](CC(C)C)C(=O)N[C@@H](CC(C)C)C(=O)O)C(=O)O [(S,S)-1a, (S,S)-bis(LeuLeu)]
solubility in water [1]: insoluble | Gelator effectiveness (Geff) ([2]; max. volume immobilized by 10 mg gelator, CH2Cl2): ins. | Gelator effectiveness (Geff) ([2]; max. volume immobilized by 10 mg gelator, CH3CN): cr. | Gelator effectiveness (Geff) ([2]; max. volume immobilized by 10 mg gelator, EtOH): sol. | Gelator effectiveness (Geff) ([2]; max. volume immobilized by 10 mg gelator, H2O/DMF mixture, given as volume + volume): 5.84+3.25 mL | Gelator effectiveness (Geff) ([2]; max. volume immobilized by 10 mg gelator, H2O/DMSO mixture, given as volume + volume): 5.09+2.98 mL | Gelator effectiveness (Geff) ([2]; max. volume immobilized by 10 mg gelator, THF): sol. | Gelator effectiveness (Geff) ([2]; max. volume immobilized by 10 mg gelator, decalin): 0.2 mL | Gelator effectiveness (Geff) ([2]; max. volume immobilized by 10 mg gelator, p-xylene): ins. | Gelator effectiveness (Geff) ([2]; max. volume immobilized by 10 mg gelator, tetralin): 1.8 mL | Gelator effectiveness (Geff) ([2]; max. volume immobilized by 10 mg gelator, toluene): cr. | Gelator effectiveness (Geff) ([2]; max. volume immobilized by 10 mg gelator, ±2-octanol): ins. | Gelator effectiveness (Geff) ([2]; maximal volume of solvent immobilized by 10 mg of gelator, solvent H2O): ins. | Geff, total volume ([2]; water/DMSO gel, total of both solvent volumes, 10 mg gelator): 8.0 mL | times more effective in gelation than 3a and 5a ([2]; water/DMSO or DMF mixtures): more than 2 times | fiber / fiber bundle diameter [3]: 40–100 nm
